According to patent US8815882B2, “Pyrazole aminopyrimidine derivatives as LRRK2 modulators” (Genentech, Inc., priority 2010, dated 2014):

The compounds below were run against T1, LRRK2 (Homo sapiens, UniProt Q5S007, G2019S) (assay: In Vitro LRRK2 Assay (LabChip 3000, fluorescently-labeled peptide substrate, ATP)). Details: Table 10; LRRK2 Ki (micromolar); read-out: LRRK2 Ki (KI).
T1 construct: purchased Invitrogen PV4882 (lot 567054A)
Format: biochemical
In short: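 Read-out was LabChip capillary electrophoresis, resolving phospho- from non-phospho-peptide by fluorescence intensity. The kinase reaction combined enzyme, ATP, test compound and labeled peptide (4 μM working dilution) for 2 h in darkness before stop solution. Values were reported as Ki, from a tight-binding model with Et, S and Km, or as IC50 or percent inhibition.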

T1 sequence (Q5S007 whole entry G2019S): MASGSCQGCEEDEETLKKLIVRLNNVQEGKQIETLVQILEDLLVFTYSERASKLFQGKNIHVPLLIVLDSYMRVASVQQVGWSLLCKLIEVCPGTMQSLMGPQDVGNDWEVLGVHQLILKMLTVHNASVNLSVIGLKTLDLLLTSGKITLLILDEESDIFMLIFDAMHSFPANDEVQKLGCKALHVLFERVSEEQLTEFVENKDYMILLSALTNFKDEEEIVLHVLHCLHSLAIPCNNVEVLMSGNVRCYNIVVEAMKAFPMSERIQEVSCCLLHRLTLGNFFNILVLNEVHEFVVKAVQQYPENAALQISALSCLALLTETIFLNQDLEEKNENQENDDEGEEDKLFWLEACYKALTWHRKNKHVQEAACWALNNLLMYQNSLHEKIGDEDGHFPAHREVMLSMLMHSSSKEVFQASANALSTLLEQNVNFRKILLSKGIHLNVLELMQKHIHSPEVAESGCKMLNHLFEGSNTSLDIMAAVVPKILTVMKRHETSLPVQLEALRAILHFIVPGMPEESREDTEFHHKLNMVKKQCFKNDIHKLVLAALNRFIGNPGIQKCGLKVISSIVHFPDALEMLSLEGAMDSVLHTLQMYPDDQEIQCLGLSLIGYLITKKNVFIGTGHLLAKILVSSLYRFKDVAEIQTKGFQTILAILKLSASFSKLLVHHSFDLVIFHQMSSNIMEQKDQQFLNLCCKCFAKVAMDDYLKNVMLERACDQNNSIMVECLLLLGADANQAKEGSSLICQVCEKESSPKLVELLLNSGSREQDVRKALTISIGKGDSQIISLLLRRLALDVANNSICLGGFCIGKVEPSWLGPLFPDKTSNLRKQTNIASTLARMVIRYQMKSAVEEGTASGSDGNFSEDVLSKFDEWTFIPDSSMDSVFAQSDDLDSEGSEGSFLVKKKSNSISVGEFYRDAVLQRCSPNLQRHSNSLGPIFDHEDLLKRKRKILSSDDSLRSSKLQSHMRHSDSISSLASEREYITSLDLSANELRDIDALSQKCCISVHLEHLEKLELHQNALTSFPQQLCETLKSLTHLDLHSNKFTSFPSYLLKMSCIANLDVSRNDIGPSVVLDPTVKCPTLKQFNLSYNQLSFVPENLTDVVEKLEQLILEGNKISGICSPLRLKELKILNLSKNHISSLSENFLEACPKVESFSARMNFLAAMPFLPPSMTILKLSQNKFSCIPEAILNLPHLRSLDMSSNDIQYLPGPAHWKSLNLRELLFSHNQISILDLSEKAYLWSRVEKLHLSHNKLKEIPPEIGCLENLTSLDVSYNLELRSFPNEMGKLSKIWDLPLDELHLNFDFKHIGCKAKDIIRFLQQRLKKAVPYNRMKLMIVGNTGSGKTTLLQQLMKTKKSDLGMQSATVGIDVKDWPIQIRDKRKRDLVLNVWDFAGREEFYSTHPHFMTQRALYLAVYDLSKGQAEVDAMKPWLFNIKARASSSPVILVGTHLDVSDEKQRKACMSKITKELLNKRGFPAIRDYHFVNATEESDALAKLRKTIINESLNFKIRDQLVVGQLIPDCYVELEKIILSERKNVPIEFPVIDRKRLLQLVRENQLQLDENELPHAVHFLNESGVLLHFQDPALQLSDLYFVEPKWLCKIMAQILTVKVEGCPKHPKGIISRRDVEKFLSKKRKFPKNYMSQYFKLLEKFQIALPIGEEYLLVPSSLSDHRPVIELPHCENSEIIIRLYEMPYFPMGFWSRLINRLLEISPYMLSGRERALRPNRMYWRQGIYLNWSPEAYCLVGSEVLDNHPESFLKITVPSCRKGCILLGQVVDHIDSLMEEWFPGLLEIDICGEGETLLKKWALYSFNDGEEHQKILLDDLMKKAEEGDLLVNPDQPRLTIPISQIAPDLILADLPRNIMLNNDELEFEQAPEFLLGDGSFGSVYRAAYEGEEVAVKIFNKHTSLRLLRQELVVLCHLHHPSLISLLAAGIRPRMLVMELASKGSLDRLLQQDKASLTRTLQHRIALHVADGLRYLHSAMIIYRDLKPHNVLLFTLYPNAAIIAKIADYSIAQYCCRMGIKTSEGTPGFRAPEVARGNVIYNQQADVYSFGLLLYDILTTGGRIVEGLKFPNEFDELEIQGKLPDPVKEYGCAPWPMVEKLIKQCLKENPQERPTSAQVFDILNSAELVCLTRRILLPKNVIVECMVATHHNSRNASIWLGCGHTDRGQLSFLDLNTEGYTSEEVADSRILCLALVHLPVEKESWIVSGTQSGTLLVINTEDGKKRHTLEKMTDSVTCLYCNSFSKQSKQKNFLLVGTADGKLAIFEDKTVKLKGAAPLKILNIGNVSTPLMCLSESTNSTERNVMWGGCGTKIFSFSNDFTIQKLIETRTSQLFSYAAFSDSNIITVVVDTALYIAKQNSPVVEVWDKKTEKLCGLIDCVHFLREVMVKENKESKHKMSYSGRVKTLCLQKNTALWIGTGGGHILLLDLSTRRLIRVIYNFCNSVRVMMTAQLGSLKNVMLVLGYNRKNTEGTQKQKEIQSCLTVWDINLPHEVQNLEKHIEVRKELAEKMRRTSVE

Ki [nM]	Structure (SMILES)
15	CNc1nc(Nc2cnn(CC(=O)N(C)C)c2C)ncc1C(F)(F)F [Example 395, N,N-dimethyl-2-(5-methyl-4-(4-(methylamino)-5-(trifluoromethyl)pyrimidim-2-ylamino)-1H-pyrazol-1-yl)acetamide]
4	CNc1nc(Nc2cn(CC(=O)N(C)C)nc2C)ncc1C(F)(F)F [Example 396, N,N-dimethyl-2-(3-methyl-4-(4-(methylamino)-5-(trifluoromethyl)pyrimidin-2-ylamino)-1H-pyrazol-1-yl)acetamide]
9.5	CNC(=O)Cn1cc(Nc2ncc(C(F)(F)F)c(NC)n2)c(C)n1 [Example 397, N-methyl-2-(3-methyl-4-(4-(methylamino)-5-(trifluoromethyl)pyrimidin-2-ylamino)-1H-pyrazol-1-yl)acetamide]
3	CNC(=O)Cn1ncc(Nc2ncc(C(F)(F)F)c(NC)n2)c1C [Example 398, N-methyl-2-(5-methyl-4-(4-(methylamino)-5-(trifluoromethyl)pyrimidin-2-ylamino)-1H-pyrazol-1-yl)acetamide]
314	CNc1nc(Nc2cnn(C(C)(C)C(=O)N(C)C)c2C)ncc1C(F)(F)F [Example 399, N,N,2-trimethyl-2-(5-methyl-4-(4-(methylamino)-5-(trifluoromethyl)pyrimidin-2-ylamino)-1H-pyrazol-1-yl)propanamide]
404	CNc1nc(Nc2cnn(C(C)(C)C(=O)N3CCCC3)c2C)ncc1C(F)(F)F [Example 400, 2-methyl-2-(5-methyl-4-(4-(methylamino)-5-(trifluoromethyl)pyrimidin-2-ylamino)-1H-pyrazol-1-yl)-1-(pyrrolidin-1-yl)propan-1-one]
0.7	CNc1nc(Nc2cnn(C(C)(C)C#N)c2C)ncc1C(F)(F)F [Example 401, 2-methyl-2-(5-methyl-4-(4-(methylamino)-5-(trifluoromethyl)pyrimidin-2-ylamino)-1H-pyrazol-1-yl)propanenitrile]
3.7	CNc1nc(Nc2cn(C3(C#N)CC3)nc2C)ncc1C(F)(F)F [Example 402, 1-(3-methyl-4-(4-(methylamino)-5-(trifluoromethyl)pyrimidin-2-ylamino)-1H-pyrazol-1-yl)cyclopropane-carbonitrile]
16	CNc1nc(Nc2cn([C@H](C)C(=O)N3CCCC3)nc2C)ncc1C(F)(F)F [Example 403, (R)-2-(3-methyl-4-(4-(methylamino)-5-(trifluoromethyl)pyrimidin-2-ylamino)-1H-pyrazol-1-yl)-1-(pyrrolidin-l-yl)propan-1-one]
18	CNc1nc(Nc2cn([C@H](C)C(=O)N(C)C)nc2C)ncc1C(F)(F)F [Example 404, (R)-N,N-dimethyl-2-(3-methyl-4-(4-(methylamino)-5-(trifluoromethyl)pyrimidin-2-ylamino)-1H-pyrazol-1-yl)propanamide]
22	CNc1nc(Nc2cn([C@@H](C)C(=O)N3CCCC3)nc2C)ncc1C(F)(F)F [Example 405, (S)-2-(3-methyl-4 (4-(methylamino)-5-(trifluoromethyl)pyrimidin-2-ylamino)-1H-pyrazol-1-yl)-1-(pyrrolidin-1-yl)propan-1-one]
4.7	CNc1nc(Nc2cn(C(C)(C)C(=O)OC)nc2C)ncc1C(F)(F)F [Example 408, methyl 2-methyl-2-(3-methyl-4-(4-(methylamino)-5-(trifluoromethyl)pyrimidin-2-ylamino)-1H-pyrazol-1-yl)propanoate]
7.6	CNc1nc(Nc2cnn(C(C)(C)C(=O)OC)c2C)ncc1C(F)(F)F [Example 409, methyl 2-methyl-2-(5-methyl-4-(4-(methylamino)-5-(trifluoromethyl)pyrimidin-2-ylamino)-1H-pyrazol-1-yl)propanoate]
10	CCc1nn(C(C)(C)C#N)cc1Nc1ncc(C(F)(F)F)c(NC)n1 [Example 410, 2-(3-ethyl-4-(4-(methylamino)-5-(trifluoromethyl)pyrimidin-2-ylamino)-1H-pyrazol-1-yl)-2-methylpropanenitrile]
39	CNc1nc(Nc2cnn([C@H](C)C(=O)N3CCCC3)c2C)ncc1C(F)(F)F [Example 411, (R)-2-(5-methyl-4-(4-(methylamino)-5-(trifluoromethyl)pyrimidin-2-ylamino)-1H-pyrazol-1-yl)-1-(pyrrolidin-1-yl)propan-1-one]
28.4	CNc1nc(Nc2cnn([C@H](C)C(=O)N(C)C)c2C)ncc1C(F)(F)F [Example 412, (R)-N,N-dimethyl-2-(5-methyl-4-(4-(methylamino)-5-(trifluoromethyl)pyrimidin-2-ylamino)-1H-pyrazol-1-yl)propanamide]
40	CNc1nc(Nc2cnn([C@@H](C)C(=O)N3CCCC3)c2C)ncc1C(F)(F)F [Example 413, (S)-2-(5-methyl-4-(4-(methylamino)-5-(trifluoromethyl)pyrimidin-2-ylamino)-1H-pyrazol-1-yl)-1-(pyrrolidin-1-yl)propan-1-one]
30	CNc1nc(Nc2cnn([C@@H](C)C(=O)N(C)C)c2C)ncc1C(F)(F)F [Example 414, (S)-N,N-dimethyl-2-(5-methyl-4-(4-(methylamino)-5-(trifluoromethyl)pyrimidin-2-ylamino)-1H-pyrazol-1-yl)propanamide]
9.5	CNc1nc(Nc2cnn([C@@H](C)C#N)c2C)ncc1C(F)(F)F [Example 415, (S)-2-(5-methyl-4-(4-(methylamino)-5-(trifluoromethyl)pyrimidin-2-ylamino)-1H-pyrazol-1-yl)propanenitrile]
1.9	CNc1nc(Nc2cn([C@@H](C)C#N)nc2C)ncc1C(F)(F)F [Example 416, (S)-2-(3-methyl-4-(4-(methylamino)-5-(trifluoromethyl)pyrimidin-2-ylamino)-1H-pyrazol-1-yl)propanenitrile]
2.1	CNc1nc(Nc2cn(C(C)(C)C#N)nc2C)ncc1Cl [Example 417, 2-(4-(5-chloro-4-(methylamino)pyrimidin-2-ylamino)-3-methyl-1H-pyrazol-1-yl)-2-methylpropanenitrile]
1.9	CNc1nc(Nc2cnn(C(C)(C)C#N)c2Cl)ncc1C(F)(F)F [Example 418, 2-(5-chloro-4-(4-(methylamino)-5-(trifluoromethyl)pyrimidin-2-ylamino)-1H-pyrazol-1-yl)-2-methylpropanenitrile]
1	CNc1nc(Nc2cn(C(C)(C)C#N)nc2C2CC2)ncc1C(F)(F)F [Example 419, 2-(3-cyclopropyl-4-(4-(methylamino)-5-(trifluoromethyl)pyrimidin-2-ylamino)-1H-pyrazol-1-yl)-2-methylpropanenitrile]
2.8	CNc1nc(Nc2cn(CC(C)(C)C#N)nc2C)ncc1C(F)(F)F [Example 420, 2,2-dimethyl-3-(3-methyl-4-(4-(methylamino)-5-(trifluoromethyl)pyrimidin-2-ylamino)-1H-pyrazol-1-yl)propanenitrile]
2.3	CNc1nc(Nc2cnn(C3(C#N)CC3)c2Cl)ncc1C(F)(F)F [Example 422, 1-(5-chloro-4-(4-(methylamino)-5-(trifluoromethyl)pyrimidin-2-ylamino)-1H-pyrazol-1-yl)cyclopropane-carbonitrile]
